Laboratory results as given in patent publication US7368444B2, “N-carbamoyl nitrogen-containing fused ring compounds and drugs containing these compounds as the active ingredient” (Ono Pharmaceutical Co., Ltd., priority 2002, dated 2008).

Columns and labels:
MBR = molecular target: T1, MBR (Rattus norvegicus, UniProt P16257); assay: Receptor binding: [3H]PK11195 competition binding, rat brain membrane preparation; conditions: 1 nmol/L [3H]PK11195, rat brain membrane preparation; Ki from IC50 by Cheng & Prusoff
T1 construct: After male wistar rats were decapitated followed to remove the whole brain, cerebellums were removed; from tissue; host or cells: male Wistar rat whole brain without cerebellum, crude membrane pellet (12,000 g)
Protocol: The affinity of the compound to MBR was determined using rat brain membrane preparation. After male wistar rats were decapitated followed to remove the whole brain, cerebellums were removed. They were homogenized in ice-cold 50 mmo/L Tris-HCl buffer (pH7.4) and the homogenates were centrifuged at 12,000 g for 20 min (4° C.), and then their supernatants were discarded. The residual pellets were washed in the same buffer. The pellets resuspended in 50 mmo/L Tris-HCl buffer (pH7.4) and adjusted to about 1 mg/mL were used as rat brain membrane preparations for binding assay. The binding assay was experimented using [3H]PK11195 as a selective MBR ligand.
To determine the amount of total binding in saturation binding study, membrane preparations, various concentrations of [^3H]PK11195, final concentraion: 0.5 vol % dimethylsulfoxide (DMSO) and 50 mmo/L Tris-HCl buffer (pH7.4) (total volume of 200 μL) were incubated for 1 hour at room temperature. To determine the amount of non-specific binding, 20 μmol/L of PK11195 was added in place of DMSO were incubated for 1 hour. The mixture rapidly was filtrated on GF/B filter soaked with 0.3% polyethyleneimine using cell harvester, which was washed twice with 50 mmo/L Tris-HCl buffer (pH7.4). After drying, the radioactivity on the filer was measured by liquid scintillation counter. The data were analyzed using analysis soft KELL (Ver. 6, BIOSOFT). The dissociation constant (KD value) was determined by using scatchard analyses.
To determine the amount of total binding in competition binding study, membrane preparation, final concentraion: 1 nmol/L of [^3H]PK11195, final concentraion: 0.5 vol % of DMSO and 50 mmol/L Tris-HCl buffer (pH7.4) (the total volume of 200 μL) were incubated for 1 hour at room temperature. […] The reaction was terminated as above described 1 hour later, then radioactivity on the filer was measured by liquid scintillation counter. […]

[1] = test system: rat adrenocortical mitochondria; assay: Determination of pregnenolone in rat adrenocortical mitochondria; format: biochemical; conditions: final concentration of the compound 1 μmol/L; compared with DMSO treated group
Protocol: The steroid productivity of the present compound was evaluated using rat adrenocortical mitochondria.
After intraperitoneal administration of 20 mg/mL (1 mL) cycloheximide, 10 IU/mL (0.3 mL) adrenocorticotropic hormone (ACTH) was intraperitoneally administered to Male SD rats 5 minutes later. Then, rats were sacrificed by cervical dislocation 20 minutes later and bilateral adrenal cortexes were extirpated at once. The extirpated adrenal cortexes were homogenized in buffer A (50 mmol/L Tris-HCl, 250 mmol/L Succrose) followed to be centrifuged at 2,000 g for 3 min (4° C.). The supernatant was centrifuged at 12,500 g for 10 min (4° C.). The residual pellet was resuspended in buffer A followed to be centrifuged at 12,500 g for 10 min (4° C.). The pellet was washed again and finally suspended in buffer B (250 mmol/L Succrose, 10 mmol/L potassium phosphate buffer, 15 mmol/L triethanolamine, 20 mmol/L potassium chloride, 5 mmol/L magnesium chloride, 10 μmol/L trilostane, 10 μmol/L SU10603) for experiments. Malate (150 mmol/L), β-NADP^+ (5 mmol/L) and the compound in a total volume of 25 μL were incubated for 5 min at 37° C. […] The radioactivity of the supernatant was measured by liquid scintillation counter. The pregnenolone content in the sample was calculated from standard curve.

| Ki (MBR) [nM] | SMILES | pregnenolone content [1] |
| --- | --- | --- |
| 5.5 | O=C(Nc1ccccc1)N1CCCCc2ccc(F)cc21 [7 (5), 8-fluoro-1-phenylcarbamoyl-2,3,4,5-tetrahydro-1H-1-benzazepine] | – |
| 0.09 | O=C(Nc1c(Cl)cccc1Cl)N1CCCCc2ccccc21 [7 (18), 1-(2,6-dichlorophenylcarbamoyl)-2,3,4,5-tetrahydro-1H-1-benzazepine] | – |
| 32 | O=C(Nc1ccc(O)cc1)N1CCCCc2ccccc21 [Example 14, 1-(4-hydroxyphenylcarbamoyl)-2,3,4,5-tetrahydro-1H-1-benzazepine] | – |
| – | CCCCCCN(CCCCCC)C(=O)Cc1c(-c2ccc(F)cc2)[nH]c2ccccc12 [FGIN1-27, 2-[2-(4-fluorophenyl)-1H-indol-3-yl]-N,N-dihexylacetamide] | higher than that in DMSO treated group |
